Assay results taken from patent publication US20220257595A1, “MACITENTAN FOR USE IN TREATING PORTOPULMONARY HYPERTENSION” (ACTELION PHARMACEUTICALS LTD, priority 2019, published 2022).

System: patients with PoPH
Assay: PORTICO safety: hematology (platelets, lymphocytes, neutrophils)
Format: in vivo
Text: For the evaluation of treatment-emergent safety endpoints in the DB phase, the observation period for each individual subject started at the time of the first administration of macitentan or placebo and ended with the start of OL treatment or 30 days after DB treatment discontinuation (whichever occurred first). The safety variables listed below apply to the DB treatment-emergent period and the macitentan treatment-emergent period. The DB treatment-emergent period was defined as the period from the DB treatment start date up to the EOT-DB+30 days or to the EOT-DB for patients entering OL. The macitentan treatment-emergent period was defined as the period from the first intake of macitentan up to end of macitentan treatment (EOMT)+30 days. EOMT was defined as EOT-DB (for patient who received macitentan only in the DB period) or EOT-OL when applicable. For patients entering OLE, the EOMT is EOT-OL. • Treatment-emergent AEs • Treatment-emergent deaths • Treatment-emergent serious adverse events (SAEs) • AEs leading to premature discontinuation of study treatment • Occurrence of post-baseline LFT (ALT and/or AST) abnormalities, classified as: • ≥3×ULN; • ≥5×ULN; • ≥8×ULN; • ≥3×ULN and <5×ULN; • […] and <8×ULN. • Occurrence of post-baseline ALT and/or AST abnormality 3×ULN and concomitant (i.e., at the same time) total bilirubin ≥2×ULN • Occurrence of post-baseline ALT and/or AST abnormality ≥3×ULN and concomitant (i.e., at the same time) total bilirubin ≥2×ULN and increased as compared to baseline • Occurrence of hemoglobin abnormalities, classified as: • ≤80 g/L, • >80 and ≤100 g/L, • decrease from baseline ≥20 g/L and <50 g/L, • decrease from baseline ≥50 g/L, • <100 g/L and concurrent (i.e., at the same time) decrease from baseline ≥20 g/L. • Other treatment-emergent marked laboratory abnormalities • Change from baseline/macitentan baseline to EOT-DB/EOMT in vital signs • Change from baseline/macitentan baseline to EOT-DB/EOMT in laboratory variables • Change from baseline/macitentan baseline to EOT-DB/EOMT in Child-Pugh classification • Change from baseline/macitentan baseline to EOT-DB/EOMT in MELD score

[1] = LL at baseline, DB phase, Safety set, 10 mg
[2] = LL at baseline, macitentan DB + OL phase, Macitentan treated set
[3] = Normal at baseline, DB phase, Safety set, 10 mg
[4] = Normal at baseline, macitentan DB + OL phase, Macitentan treated set

## CCCNS(=O)(=O)Nc1ncnc(OCCOc2ncc(Br)cn2)c1-c1ccc(Br)cc1 [macitentan, N-[5-(4-Bromophenyl)-6-[2-[(5-bromo-2-pyrimidinyl)oxy]ethoxy]-4-pyrimidinyl]-N′-propylsulfamide]
DB phase, macitentan group
  Median decrease in lymphocyte count, baseline to Week 12: 2.8e+08 L⁻¹
  Median decrease in neutrophil count, baseline to Week 12: 7.2e+08 L⁻¹
  Median decrease in platelets at Week 12: 1.1e+10 L⁻¹
  Median lymphocyte count at Week 12: 1.04e+09 L⁻¹
  Median neutrophil count at Week 12: 2.25e+09 L⁻¹
  Patients with neutrophil decreases from normal at baseline to <1.5×10^9/L: 6/41
  Patients with normal platelets at baseline decreasing to <75×10^9/L: 2/29
[1]
  Leukocytes (10^9/L) <2.0 (LLL), worst treatment-emergent marked abnormality: 2/5
  Lymphocytes (10^9/L) <0.5 (LLL), worst treatment-emergent marked abnormality: 3/5
  Neutrophils (10^9/L) <1.0 (LLL), worst treatment-emergent marked abnormality: 0/2
[2]
  Leukocytes (10^9/L) <2.0 (LLL), worst treatment-emergent marked abnormality: 3/7
  Lymphocytes (10^9/L) <0.5 (LLL), worst treatment-emergent marked abnormality: 6/10
  Neutrophils (10^9/L) <1.0 (LLL), worst treatment-emergent marked abnormality: 0/2
[3]
  Leukocytes (10^9/L) <2.0 (LLL), worst treatment-emergent marked abnormality: 0/38
  Leukocytes (10^9/L) <3.0 −≥ 2.0 (LL), worst treatment-emergent marked abnormality: 5/38
  Lymphocytes (10^9/L) <0.5 (LLL), worst treatment-emergent marked abnormality: 1/38
  Lymphocytes (10^9/L) <0.8 −≥ 0.5 (LL), worst treatment-emergent marked abnormality: 8/38
  Neutrophils (10^9/L) <1.0 (LLL), worst treatment-emergent marked abnormality: 2/41
  Neutrophils (10^9/L) <1.5 −≥ 1.0 (LL), worst treatment-emergent marked abnormality: 4/41
[4]
  Leukocytes (10^9/L) <2.0 (LLL), worst treatment-emergent marked abnormality: 4/76
  Leukocytes (10^9/L) <3.0 −≥ 2.0 (LL), worst treatment-emergent marked abnormality: 9/76
  Lymphocytes (10^9/L) <0.5 (LLL), worst treatment-emergent marked abnormality: 2/72
  Lymphocytes (10^9/L) <0.8 −≥ 0.5 (LL), worst treatment-emergent marked abnormality: 19/72
  Neutrophils (10^9/L) <1.0 (LLL), worst treatment-emergent marked abnormality: 5/81
  Neutrophils (10^9/L) <1.5 −≥ 1.0 (LL), worst treatment-emergent marked abnormality: 12/81
Any time during DB phase, macitentan group
  Patients with shifts in lymphocyte counts from normal at baseline to <0.8×10^9/L: 9/38
Combined DB+OL phase
  Median decrease from baseline in platelet counts: no median decrease
Macitentan DB+OL phase
  Median decrease in lymphocyte count, baseline to Week 24: 2.4e+08 L⁻¹
  Median decrease in neutrophil count, baseline to Week 24: 3.3e+08 L⁻¹
  Median lymphocyte count at Week 24: 1.05e+09 L⁻¹
  Median neutrophil count at Week 24: 2.4e+09 L⁻¹
  Patients with platelet decreases from normal at macitentan baseline to <75×10^9/L: 7 patients
  Patients with shifts in lymphocyte counts from normal at baseline to <0.8×10^9/L: 21/72
  Patients with shifts in neutrophil counts from normal at baseline to notably low: 17/81
